Read-outs that look alike come from different tables or passages of the source. Marks after values point to notes of the source that are not given here.
Assays:
[1] = tested on: adrenaline-induced arrhythmia in rats; experiment: Prophylactic antiarrhythmic activity in adrenaline-induced arrhythmia; format: in vivo, rat
Description: The studied compounds were administered i.p. 45 min before the injection of adrenaline, calcium chloride, or barium chloride. The electrocardiogram (ECG) was recorded during the first 2 min as well as in the 5th, 10th, and 15th min after the arrhythmogen injection. […]

[2] = tested on: lipid peroxidation in rat brain homogenate; experiment: Lipid peroxidation in rat brain homogenate (TBARS), antioxidant effect; format: biochemical; conditions: 10^−3 M
Description: The rat brain homogenate containing 10 mg tissue/ml was prepared in 0.9% saline. The rates of membrane lipid peroxidation were measured by the formation of thiobarbituric acid reactive substances (TBARS). Rat brain homogenates (1 ml) were incubated at 37°C for 5 min with 10 μl of a tested compound or vehicle. Lipid peroxidation was initiated by the addition of 50 μl of 0.5 mM FeCl2 and 50 μl of 2.0 mM ascorbic acid. After 30 min of incubation, the reaction was stopped by adding 0.1 ml of 0.2% butylated hydroxytoluene (BHT). Thiobarbituric acid reagent was then added and the mixture was heated for 15 min in a boiling water bath.

α1A−adrenoceptor subtype = tested on: α1A−adrenoceptor subtype; set-up: method as in Koshimizu et al. (2004); conditions: ref Koshimizu et al. (2004); cited from earlier work
α1-adrenoceptor [3] = conditions: ref Pönicke et al. (2002); read-out: Adrenergic receptors Ki α1; cited from earlier work
α1B−adrenoceptor = tested on: α1B−adrenoceptor; set-up: method as in Koshimizu et al. (2004); conditions: ref Koshimizu et al. (2004); cited from earlier work
α1-adrenoceptor [4] = experiment: α1-adrenoceptor radioligand binding assay ([3H]-prazosin, rat cerebral cortex); conditions: read-out: Adrenergic receptors Ki α1
Description: The α1- and β1-adrenoceptor radioligand binding assay was performed on rat cerebral cortex. […] The cell pellet was resuspended in the Tris–HCl buffer and centrifuged again. Radioligand binding assays were performed in plates (MultiScreen/Millipore). […] The incubation was terminated by rapid filtration through glass fiber filters (Whatman GF/C) using a vacuum manifold (Millipore). The filters were then washed twice with the assay buffer and placed in scintillation vials with a liquid scintillation cocktail. […] All the assays were made in duplicate and the inhibitory constants (Ki) were estimated.
LO–labeled ligand concentration, KD–dissociation constant of labeled ligand

α1B-adrenoceptors = target: T1, α1B-adrenoceptors (Mus musculus, UniProt P97717); conditions: mouse spleen, cited from earlier work
T1 construct: The spleen was removed from male mice; from tissue; host or cells: isolated mouse spleen
T1 sequence (P97717 1-514): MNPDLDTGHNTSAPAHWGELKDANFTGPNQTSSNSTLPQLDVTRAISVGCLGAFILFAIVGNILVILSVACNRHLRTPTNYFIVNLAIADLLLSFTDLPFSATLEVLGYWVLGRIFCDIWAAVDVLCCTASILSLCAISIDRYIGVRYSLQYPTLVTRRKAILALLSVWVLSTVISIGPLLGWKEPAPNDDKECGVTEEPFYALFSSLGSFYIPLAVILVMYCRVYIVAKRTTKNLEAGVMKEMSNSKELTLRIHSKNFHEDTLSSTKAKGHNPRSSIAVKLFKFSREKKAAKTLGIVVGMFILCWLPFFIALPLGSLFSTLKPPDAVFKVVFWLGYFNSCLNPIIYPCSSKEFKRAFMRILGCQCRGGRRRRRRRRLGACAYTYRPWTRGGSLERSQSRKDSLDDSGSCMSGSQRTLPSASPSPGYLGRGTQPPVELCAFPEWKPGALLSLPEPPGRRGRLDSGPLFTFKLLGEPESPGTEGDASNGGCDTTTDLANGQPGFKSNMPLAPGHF

α1D-adrenoreceptors = target: T2, α1D-adrenoreceptors (Rattus norvegicus, UniProt P23944); conditions: rat aorta; ref Eltze (1996); cited from earlier work
T2 sequence (P23944 1-561): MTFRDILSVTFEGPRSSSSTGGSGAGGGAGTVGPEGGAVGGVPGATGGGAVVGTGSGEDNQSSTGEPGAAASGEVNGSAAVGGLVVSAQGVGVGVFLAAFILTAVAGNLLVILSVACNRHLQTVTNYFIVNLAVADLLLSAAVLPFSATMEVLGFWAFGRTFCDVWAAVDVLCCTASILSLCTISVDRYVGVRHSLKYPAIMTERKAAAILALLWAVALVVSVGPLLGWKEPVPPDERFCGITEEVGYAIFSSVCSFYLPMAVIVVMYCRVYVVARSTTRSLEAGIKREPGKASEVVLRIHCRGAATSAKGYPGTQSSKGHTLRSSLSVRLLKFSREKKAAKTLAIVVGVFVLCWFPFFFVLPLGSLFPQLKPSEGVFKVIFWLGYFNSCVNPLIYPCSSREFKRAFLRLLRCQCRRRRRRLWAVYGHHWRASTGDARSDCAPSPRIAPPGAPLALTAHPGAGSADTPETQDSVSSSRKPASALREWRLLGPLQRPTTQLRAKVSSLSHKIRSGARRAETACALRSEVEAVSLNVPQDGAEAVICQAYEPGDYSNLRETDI

α1A-adrenoceptors = target: T3, α1A-adrenoceptors (Rattus norvegicus, UniProt P43140); conditions: rat tail artery, cited from earlier work
T3 construct: the middle part of the ventral caudal artery was removed; from tissue; host or cells: isolated rat tail (ventral caudal) artery rings
T3 sequence (P43140 1-466): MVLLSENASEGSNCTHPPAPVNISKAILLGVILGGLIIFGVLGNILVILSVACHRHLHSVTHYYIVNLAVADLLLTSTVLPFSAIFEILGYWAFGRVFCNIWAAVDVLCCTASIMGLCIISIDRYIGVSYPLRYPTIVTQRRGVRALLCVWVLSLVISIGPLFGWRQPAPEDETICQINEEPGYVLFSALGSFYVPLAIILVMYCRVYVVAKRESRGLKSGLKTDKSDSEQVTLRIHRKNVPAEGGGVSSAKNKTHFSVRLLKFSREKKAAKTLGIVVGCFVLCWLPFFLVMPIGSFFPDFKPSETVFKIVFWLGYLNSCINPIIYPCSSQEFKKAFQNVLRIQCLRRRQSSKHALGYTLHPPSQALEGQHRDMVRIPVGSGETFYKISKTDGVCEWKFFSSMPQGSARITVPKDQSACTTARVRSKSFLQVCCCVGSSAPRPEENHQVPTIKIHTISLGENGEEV

[5] = adrenaline 20 μg/kg i.v. alone (arrhythmia control)

With `CNC[C@H](O)c1ccc(O)c(O)c1` [Adrenaline, adrenaline] the “Bigeminy (%)” value [1, 5] was 33.3%, the “Blocks (%)” value [1, 5] was 50.0% and the “Bradycardia (%)” value [1, 5] was 66.7%.

In the case of `COc1ccccc1OCCNCC(O)COc1cccc2[nH]c3ccccc3c12` (stereo not shown) [Carvedilol, carvedilol, reference compound], the “inhibition of lipid peroxidation (in words)” value [2] is reported as “inhibited lipid peroxidation”, the “% reduction of absorbance (% antioxidant activity)” value ([2]; TBARs at 532 nm) is reported as 89.58% and the Absorbance ([2]; TBARs at 532 nm) is reported as 0.094 ± 0.002. The ED50 ([1]; Rattus norvegicus, read-out: ED50 (confidence limits)) was 0.36 mg/kg, the “pA2 value for α1A−adrenoceptor subtype” value (α1A−adrenoceptor subtype) was 9.0 and the Ki (α1-adrenoceptor [3]) was […]. For the same molecule, the “pA2 value for α1B−adrenoceptor” value (α1B−adrenoceptor) was 10.0.

Molecule `Cc1ccc(N(CC2=NCCN2)c2cccc(O)c2)cc1` [Phentolamine, phentolamine, reference compound] has a Ki (α1-adrenoceptor [4]) of 18.3 nM.

In the case of `COc1cc2nc(N3CCN(C(=O)c4ccco4)CC3)nc(N)c2cc1OC` [Prazosin, prazosin], the “pA2 ± S.E.M., α1B” value (α1B-adrenoceptors; ref Eltze (1996)) is given as 9.07 ± 0.09^b, the “pA2 ± S.E.M., α1D” value (α1D-adrenoreceptors) is given as 8.85 ± 0.09^b and the “pA2 ± S.E.M., α1A” value (α1A-adrenoceptors; ref Parés-Hipólito et al. (2006)) is given as 8.93 ± 0.03^a.

In the case of `CCOc1ccccc1OCCN[C@H](C)Cc1ccc(OC)c(S(N)(=O)=O)c1` [Tamsulosin], the “pA2 ± S.E.M., α1B” value (α1B-adrenoceptors; ref Eltze et al. (1999)) is listed as 8.33 ± 0.08^d and the “pA2 ± S.E.M., α1A” value (α1A-adrenoceptors; ref Jähnichen et al. (2004)) is listed as 10.32 ± 0.05^c.

From paper PMC4971072, “Chemically Homogenous Compounds with Antagonistic Properties at All α1-Adrenoceptor Subtypes but not β1-Adrenoceptor Attenuate Adrenaline-Induced Arrhythmia in Rats” (Frontiers in Pharmacology, 2016)
